Experimental data: PMC5966835 (Antiviral research, 2018)
Where two headings read alike, the source gives them in different places.

Legend:
CHIKV nsP1 [1] = target: T1, CHIKV nsP1 (Chikungunya virus, UniProt Q8JUX6); test: Fluorescence polarization GTP-competition assay; assay type: binding; conditions: for more active against CHIKV nsP1 than Dengue NS5 (selectivity): Ki CHIKV nsP1 vs DENV NS5
T1 sequence (Q8JUX6 1-535 limits assumed): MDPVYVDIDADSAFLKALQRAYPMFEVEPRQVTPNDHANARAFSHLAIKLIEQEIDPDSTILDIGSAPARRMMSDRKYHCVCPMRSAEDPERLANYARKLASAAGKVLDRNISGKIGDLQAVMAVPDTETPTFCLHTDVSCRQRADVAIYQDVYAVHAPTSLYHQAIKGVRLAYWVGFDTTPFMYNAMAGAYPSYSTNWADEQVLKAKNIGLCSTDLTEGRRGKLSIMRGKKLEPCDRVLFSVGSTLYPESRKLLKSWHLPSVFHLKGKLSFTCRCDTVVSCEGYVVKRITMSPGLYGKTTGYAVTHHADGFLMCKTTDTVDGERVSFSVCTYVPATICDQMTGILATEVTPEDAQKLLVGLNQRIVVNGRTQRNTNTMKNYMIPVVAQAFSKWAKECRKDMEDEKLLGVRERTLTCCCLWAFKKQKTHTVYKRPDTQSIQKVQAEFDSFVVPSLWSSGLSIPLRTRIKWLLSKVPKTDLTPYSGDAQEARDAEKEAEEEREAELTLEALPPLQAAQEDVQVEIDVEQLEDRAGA

DENV NS5 = DENV NS5 (Dengue virus type 2, UniProt P29990); test: GTP-binding inhibition of flavivirus NS5 capping enzyme
Sequence of DENV NS5 (P29990 2492-2758 limits assumed): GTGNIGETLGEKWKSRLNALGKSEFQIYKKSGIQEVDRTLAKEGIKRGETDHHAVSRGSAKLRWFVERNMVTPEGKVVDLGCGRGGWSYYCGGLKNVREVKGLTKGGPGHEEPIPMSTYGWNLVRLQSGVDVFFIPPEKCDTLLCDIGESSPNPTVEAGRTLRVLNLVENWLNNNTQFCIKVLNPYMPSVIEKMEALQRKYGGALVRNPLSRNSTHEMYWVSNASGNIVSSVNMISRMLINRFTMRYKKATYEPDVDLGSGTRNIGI

CHIKV nsP1 [2] = target: T1, CHIKV nsP1; test: Guanylation inhibition; assay type: biochemical; conditions: 200-3.1 µM, 1 hour at 37°C, n=3
Cytotoxicity assay [3] = test: Cytotoxicity assay
CHIKV = test: Live virus testing, CHIKV in Huh 7 cells, plaque assay; assay type: cell-based; conditions: Chikungunya virus, read-out: Huh 7 EC50
Cytotoxicity assay [4] = conditions: human
Sindbis virus = test: Live virus testing, Sindbis virus in BHK cells, plaque assay; assay type: cell-based, Sindbis virus (TE/3'2J); conditions: for Sindbis virus replication in vitro: BHK cells, MOI 0.1, 48 hours
CHIKV (strain OPY1) = test: Live virus testing, CHIKV in BHK cells, plaque assay; assay type: cell-based, Chikungunya virus; conditions: for CHIKV replication in BHK cells: MOI 0.1, 48 hours; for EC50: Chikungunya virus, BHK, read-out: BHK EC50
[5] = cited from earlier work
[6] = tested on: human adenosine-triphosphategated P2X7 receptor; conditions: ref Fischer et al., 2014; cited from earlier work

SMILES	Ki (CHIKV nsP1 [1])	Ki (DENV NS5)	inhibition of CHIKV nsP1 guanylation activity (CHIKV nsP1 [2])	more active against CHIKV nsP1 than Dengue NS5 (selectivity) (CHIKV nsP1 [1])	CC50 at 24 h (Cytotoxicity assay [3]; hamster)	CC50 at 48 h (Cytotoxicity assay [3]; hamster)	CC50 (Cytotoxicity assay [3]; hamster and human)	EC50 (CHIKV; Huh-7, 24 h)	EC50 (CHIKV; Huh-7, 48 h)	CC50 at 24 h (Cytotoxicity assay [4])	CC50 at 48 h (Cytotoxicity assay [4])	EC50 (Sindbis virus; Sindbis virus, BHK, 48 h, read-out: EC50 Sindbis virus growth)	average selectivity index (CHIKV (strain OPY1); BHK and Huh 7 cells, 24 and 48 hours)	CHIKV replication in BHK cells (CHIKV (strain OPY1))	EC50 (CHIKV (strain OPY1); 24 h)	EC50 (CHIKV (strain OPY1); 48 h)	absorption in the human intestine [5]	Sindbis virus replication in vitro (Sindbis virus)	Ca(2+) uptake of P2X7 receptor [6]
CCc1oc2ccccc2c1C(=O)c1cc(Br)c(O)c(Br)c1 [benzbromarone, Benzbromarone, reference compound]	13 ± 0.9 µM	9 ± 0.7 µM	only showed inhibitory activity at high µM concentrations																
CCCCCc1c2c(cc(O)c1C(=O)O)OC(=O)c1c(cc(OC)cc1C(=O)CCCC)O2 [lobaric acid]	7 ± 0.6 µM	43.8 ± 7 µM	inhibited CHIKV nsP1 guanlylation activity in a dose dependent manner	~5 X	76.3 ± 2.1 µM	53.8 ± 8.1 µM	50 to 76 µM	16.3 ± 1.2 µM	5.3 ± 0.4 µM	60.5 ± 3.8 µM	50 ± 1.3 µM	5.9 µM	~7	inhibited viral replication efficiently after 48 hours	9.9 ± 2.6 µM	8.9 ± 1.3 µM			
CN1CCCN=C1/C=C/c1cccs1 [pyrantel pamoate, reference compound]	5 ± 0.3 µM	38 ± 1.5 µM	inhibited CHIKV nsP1 guanlylation activity in a dose dependent manner	~5 X										Neither pyrantel pamoate nor garcinolic acid were able to reduce CHIKV replication in BHK cells			poorly absorbed in the human intestine	did not markedly decrease Sindbis virus replication in vitro	
CC(C)=CCCC1(C)C=Cc2c(O)c3c(c(CC=C(C)C)c2O1)OC12C(=CCCC1C(C)(C)O[C@@]2(C/C=C(\C)C(=O)O)C(=O)O)C3=O (some centres unmarked) [garcinolic acid]	14.5 ± 4.9 µM	6.9 ± 0.4 µM	inhibited CHIKV nsP1 guanlylation activity in a dose dependent manner											Neither pyrantel pamoate nor garcinolic acid were able to reduce CHIKV replication in BHK cells				did not markedly decrease Sindbis virus replication in vitro	increase Ca(2+) uptake of the human adenosine-triphosphategated P2X7 receptor
